For series [1] the following is noted: background statement, in words; cited from earlier work.
Series [2] is described as follows: Solubility at room temperature. Format: physicochemical. The note with it: for Solubility, Acetone: in words. On the procedure: Then, solubility at room temperature of the resulting compound is measured.

As to C.I. Solvent Blue-70, the “solubility in an organic solvent” value in series [1] is “soluble in an organic solvent”.
With “Tetrasulfonic acid copper phthalocyanine [C.I. Acid Blue-249]”, the water-solubility entry in series [1] is “insufficient”.
Consider “tetrakis(sulfobenzamide) copper naphthalocyanine [Example 5]”, for which, in series [2], the “Solubility, DMF” value is over 2.0%; the “Solubility, Acetone” value is recorded as “insoluble”; the “Solubility, Dilute aqueous alkaline solution” value is given as under 1.5%; the “Solubility, Methanol” value is given as under 0.1%.
In the case of “tetrakis(sulfobenzamide) copper phthalocyanine [Example 1]”, in series [2], the “Solubility, Acetone” value was “insoluble”; the “Solubility, Methanol” value is listed as over 5%; the “Solubility, Water” value is over 10%.
As for “tetrakis(sulfobenzamide) nickel naphthalocyanine [Example 4]”, in series [2], the “Solubility, DMF” value is over 2.0%; the “Solubility, Acetone” value is “insoluble”; the “Solubility, Dilute aqueous alkaline solution” value was under 1.5%; the “Solubility, Methanol” value is given as under 0.1%.
Consider “tetrakis(sulfobenzamide) phthalocyanine [Example 2]”, for which, in series [2], the “Solubility, Acetone” value was “insoluble”; the “Solubility, Methanol” value was over 5%; the “Solubility, Water” value is on record as over 10%.

(Values after patent US5739319A, “Phthalocyanine or naphthalocyanine derivative” (Orient Chemical Industries, Ltd., priority 1995, dated 1998).)
